Assay [1] can be described thus: Proton Relaxation Enhancement (PRE) titration of ProHance with polyarylenes and reference compounds: Ka and Rb. In kind it is binding. As to conditions: for Rb/r1p: adduct with ProHance relative to free ProHance; for Ka: interaction with ProHance (1 mM), Hepes/NaCl; for Ka / Rb: T = 25° C., 21.5 MHz, pH = 7.0 ± 0.1; for Rb: relaxivity of the adduct with ProHance at saturation. The method, then:
(§1) This method consists in measuring the variation in the longitudinal proton Relaxation Rates (R1=1/T1) of the paramagnetic solutions upon increasing the concentration of the interacting substrate. […] To this end, solutions of the Gd-complexes (1 mM) were titrated with the polyarylenes compounds and non-hydrophobic reference compounds (in the concentration range 1-40 mM, leading to the saturation of the contrast agent), at 21.5 MHz and 298 K, in Hepes/NaCl buffer solution ([hepes]=3.8 mM, [NaCl]=150 mM) at pH 7.0-7.2.
(§2) The reproducibility of the T data was ±0.5%.
The least-squares fit of the R1 versus substrate concentration binding isotherms (FIGS. 4 and 5) enabled us to calculate the affinity constants and the relaxivities of the adducts reported in tables 2 and 3 below.
Other aromatic-containing structures, beside HPTS, were considered for the interaction.

The nature of assay [2]: Longitudinal relaxivity r1p of the free Gd-complex (relaxometry, 21.5 MHz). In kind it is physicochemical. Conditions: T = 25° C., B0 = 21.5 MHz, pH = 7.0 ± 0.1. As to the method:
as §1, §2

Assay [3] in a line: Proton Relaxation Enhancement (PRE) titration of Gd-complexes (GBCA) with HPTS: binding parameters Ka and Rb. Conditions: for Ka: interaction of GBCA (1 mM) with HPTS, Hepes/NaCl; for Ka / Rb: T = 25° C., 21.5 MHz, pH = 7.0 ± 0.1; for Rb: relaxivity of the adduct with HPTS at saturation.
Method: The binding parameters Ka and Rb between the investigated Gd-complexes and the polyarylene additives were calculated by using the well-established Proton Relaxation Enhancement (PRE) technique.
This method consists in measuring the variation in the longitudinal proton Relaxation Rates (R1=1/T1) of the paramagnetic solutions upon increasing the concentration of the interacting substrate. By this method, the binding parameters Ka (the affinity constant) and Rb (the relaxivity of the resulting adducts at saturation) can be determined. To this end, solutions of the Gd-complexes (1 mM) were titrated with the polyarylenes compounds and non-hydrophobic reference compounds (in the concentration range 1-40 mM, leading to the saturation of the contrast agent), at 21.5 MHz and 298 K, in Hepes/NaCl buffer solution ([hepes]=3.8 mM, [NaCl]=150 mM) at pH 7.0-7.2.
Relaxation rates were measured on a Stelar SpinMaster Relaxometer (Stelar, Mede, PV, It) operating at 21.5 MHz by means of the inversion recovery method (16 experiments, two scans). The reproducibility of the T data was ±0.5%.
Analysis of data was carried out by using origin 9.0 software.
Assay [4] in a line: 1H NMRD profiles of ProHance free and in the presence of 40 mM HPTS. In kind it is physicochemical. Conditions: 1 mM ProHance with 40 mM HPTS vs ProHance as-such; 298 K; 0.01-70 MHz. As to the method:
In order to investigate if the enhancement of the relaxivity is maintained at different magnetic field strength, the proton 1/T1 NMRD profiles were measured at 298 K on 1 mM ProHance solutions in the absence and in the presence of 40 mM HPTS. Measurements were carried out on a fast field-cycling Stelar relaxometer over a continuum of magnetic field strengths from 0.00024 to 0.47 T (corresponding to 0.01-20 MHz proton Larmor Frequency). The relaxometer operates under computer control with an absolute uncertainty in 1/T1 of ±0.1%. Additional data points in the range 21.5-70 MHz were obtained on the Stelar SpinMaster relaxometer. The concentration of the solutions used for the relaxometric characterization was determined according to a previously reported relaxometric method (Arena, F. et al, Bioconjugate Chem. 2011, 22, 2625-2635).
The analysis provides the evolution of the relaxivity of the two species as a function of the magnetic field.

For assay [5], the system named is TS/A breast cancer cells transplanted on Balb/c mice. Conditions: T1w MRI at 7.1T, injection of 0.15 mmol/Kg ProHance alone or with 0.45 mmol/Kg HPTS.
Method: Mice were injected with 0.15 mmoles/kg of ProHance e 0.45 mmoles/kg of HPTS (corresponding to 150-220 μL for 20-30 g mice).
In vivo experiments were carried out on xenograpt murine models of cancer.
Female 10-12 weeks Balb/c mice (Charles River Laboratories, Calco, Italy) were inoculated subcutaneously in the flank with 0.1 mL of a suspension containing 5×10^5 TS/A mammary breast cancer cell lines (Nanni P. et al. Clin. Exp. Metastasis 1983, 1, 373-380).
For MRI acquisition, mice were anesthetized by intramuscular injection of a mixture of 20 mg/kg tiletamine/zolazepam (Zoletil 100, Virbac, Milan, Italy) 20 mg/kg plus 5 mg/kg xylazine (Rompun; Bayer, Milan, Italy). A permanent vein access was obtained by inserting a PE10 catheter into the tail vein.
MR images have been acquired, pre and post injection of GBCA, at 7.1T by using Bruker Avance 300 spectrometer equipped with a Micro 2.5 microimaging probe. Mice were injected with 0.15 mmol/Kg of ProHance followed (after 1 h when the wash-out of the GBCA was considered complete) by the injection of a mixture of ProHance and HPTS (0.15 mmol/Kg ProHance and 0.45 mmol/Kg HPTS).
Tumor volume and morphology were determined by multislices anatomical T2w images. A ROI was manually drawn and the slice volume was calculated. […]

“Also recorded” adds a separate entry of the source.

Regarding `O=S(=O)(O)c1cccc2c(S(=O)(=O)O)cccc12` [1,5 NDS, 1,5 Naphthalene disulphonic acid], in assay [1], the Rb/r1p was found to be 1.4, the Ka was 45.5 M⁻¹ and the Rb worked out at 6.3 mM⁻¹ s⁻¹.
Take `O=S(=O)(O)c1ccc2cc(S(=O)(=O)O)ccc2c1` [2,6 NDS, 2,6 Naphthalene disulphonic acid]: in assay [1], the Rb/r1p came to 1.2, the Ka worked out at 94.4 M⁻¹ and the Rb turned out to be 5.4 mM⁻¹ s⁻¹.
The matching figures for `Nc1cc(S(=O)(=O)O)c2ccc3c(S(=O)(=O)O)cc(S(=O)(=O)O)c4ccc1c2c43` [APTS, 8-Aminopyrene-1,3,6 trisulfonic acid]: 1.6, 319 M⁻¹ and 7.6 mM⁻¹ s⁻¹.
Take `O=C(O)COc1cc(S(=O)(=O)O)c2ccc3c(S(=O)(=O)O)cc(S(=O)(=O)O)c4ccc1c2c43` [CMPTS, 8-Carboxymethoxypyrene-1,3,6-trisulfonic acid]: in assay [1], the Rb/r1p is 1.8, the Ka was found to be 94.2 M⁻¹ and the Rb was 8.5 mM⁻¹ s⁻¹.
In turn, `O=C(O)CN1CCN(CC(=O)O)CCN(CC(=O)O)CCN(CC(=O)O)CC1` [Dotarem] registered a r1p in assay [2] of 4.2 mM⁻¹ s⁻¹. For the same compound, in assay [3], the Ka came to 174 M⁻¹ and the Rb worked out at 7.4 mM⁻¹ s⁻¹.
As to `O=C(O)CN1CCN(CC(=O)O)CCN(C(CO)C(O)CO)CCN(CC(=O)O)CC1` (stereo not shown) [Gadovist, Gadobutrol], in assay [2], the r1p was 5.0 mM⁻¹ s⁻¹. In addition, in assay [3], the Ka is 1157 M⁻¹ and the Rb came to 7.9 mM⁻¹ s⁻¹.
Compound `O=C([O-])CN1CCNCCN(CC(=O)[O-])CCN(CC(=O)[O-])CC1.[Gd+3]` [Gd-DO3A] displayed a r1p in assay [2] of 6.2 mM⁻¹ s⁻¹. In addition, in assay [3], the Ka amounted to 246 M⁻¹ and the Rb is 9.5 mM⁻¹ s⁻¹.
`O=S(=O)(O)c1ccc(O)cc1` [HBSA, 4-Hydroxybenzenesulfonic acid]: the Ka result in assay [1] is “No binding; also recorded: No interaction”.
`O=S(=O)(O)c1cc(S(=O)(=O)O)c2ccc3c(O)cc(O)c4ccc1c2c43` [HPDS, 6,8-Dihydroxypyrene-1,3-disulfonic acid]: in assay [1], the Rb/r1p was determined as 2.4, the Ka came out at 124 M⁻¹ and the Rb is 10.9 mM⁻¹ s⁻¹.
Consider `O=S(=O)(O)c1cc(O)c2ccc3c(S(=O)(=O)O)cc(S(=O)(=O)O)c4ccc1c2c34` [HPTS, 8-Hydroxypyrene-1,3,6-trisulfonic acid], for which, in assay [1], the Rb/r1p turned out to be 1.5, the Ka was 628 M⁻¹ and the Rb is 6.9 mM⁻¹ s⁻¹.
Regarding `COc1cc(S(=O)(=O)O)c2ccc3c(S(=O)(=O)O)cc(S(=O)(=O)O)c4ccc1c2c43` [MPTS, 8-Methoxy-1,3,6 pyrene trisulfonic acid], in assay [1], the Rb/r1p came out at 1.4, the Ka was found to be 514 M⁻¹ and the Rb was found to be 6.5 mM⁻¹ s⁻¹.
As for `CNC[C@H](O)[C@@H](O)[C@H](O)[C@H](O)CO.CNC[C@H](O)[C@@H](O)[C@H](O)[C@H](O)CO.O=C([O-])CN(CCN(CC(=O)[O-])CC(=O)O)CCN(CC(=O)[O-])CC(=O)O.[Gd+3]` [Magnevist], the Ka entry in assay [3] is “no binding is observed; also recorded: No interaction”.
On to `CNC[C@H](O)[C@@H](O)[C@H](O)[C@H](O)CO.CNC[C@H](O)[C@@H](O)[C@H](O)[C@H](O)CO.O=C([O-])CN(CCN(CC(=O)[O-])CC(=O)O)CCN(CC(=O)O)C(COCc1ccccc1)C(=O)[O-].[Gd+3]` (stereo not shown) [MultiHance, gadobenate dimeglumine], for which the Ka result in assay [3] was “no binding is observed; also recorded: No interaction”.
Turning to `CNC(=O)CN(CCN(CCN(CC(=O)[O-])CC(=O)NC)CC(=O)[O-])CC(=O)[O-].[Gd+3]` [Omniscan], in assay [3], the Ka entry is recorded as “no binding is observed; also recorded: No interaction”.
`O=S(=O)(O)c1cc(S(=O)(=O)O)c2ccc3c(S(=O)(=O)O)cc(S(=O)(=O)O)c4ccc1c2c43` [PTS, 1,3,6,8 Pyrenetetrasulfonic acid]: in assay [1], the Rb/r1p is 1.6, the Ka stood at 177 M⁻¹ and the Rb is 7.3 mM⁻¹ s⁻¹.
The compound `CC(O)CN1CCN(CC(=O)O)CCN(CC(=O)O)CCN(CC(=O)O)CC1` (stereo not shown) [ProHance] showed a r1p in assay [2] of 4.6 mM⁻¹ s⁻¹. In addition, the “improvement of the relaxivity as a function of the magnetic field (NMRD profile)” value in assay [4] is “maintained over the whole range of magnetic field”. The “mean signal enhancement, Enh %, in the tumor ROI” value in assay [5] was 53%. Besides, the “improvement of the relaxivity shown by the free complex” value is “about 10%” in assay [3] (20% of the complex in the form of a non-covalent adduct with HPTS), ~30% in assay [3] (60% of the complex in the form of a non-covalent adduct with HPTS) and ~50% in assay [3] (99% of the complex in the form of a non-covalent adduct with HPTS). For the same compound, the Ka in assay [3] was determined as 628 M⁻¹. Besides, in assay [3] (molar ratio 1:3 of Prohance to HTPS), the “improvement of relaxivity in comparison with Prohance as-such” value was “about 30%”. Further, in assay [3], the Rb is 6.9 mM⁻¹ s⁻¹.

The record behind these values is patent US12226494B2, “Pharmaceutical compositions comprising Gd-complexes and polyarylene additives” (BRACCO IMAGING S.P.A., priority 2018, dated 2025).
